Data reported in ChEMBL document CHEMBL1142713, “From 4,5,6,7-tetrahydro-5-methylimidazo[4,5,1-jk](1,4)benzodiazepin-2(1H)-one (TIBO) to etravirine (TMC125): fifteen years of research on non-nucleoside inhibitors of HIV-1 reverse transcriptase” (J Med Chem, 2005).

How the values were obtained:
MT4 [1] = experiment: Effective concentration of the compound to inhibit HIV-1 replication in HIV-infected MT-4 cells; assay type: functional, cell-based; details: Homo sapiens
MT4 [2] = experiment: Effective concentration of the compound to inhibit […] replication in HIV-infected MT-4 cells; assay type: functional, cell-based; details: Homo sapiens
MT4 [3] = experiment: Effective concentration of the compound to inhibit HIV-1 mutant K103N replication in HIV-infected MT-4 cells; assay type: functional, cell-based, Homo sapiens
MT4 [4] = experiment: Effective concentration of the compound to inhibit HIV-1 mutant L100I replication in HIV-infected MT-4 cells; assay type: functional, cell-based, Homo sapiens
MT4 [5] = experiment: Effective concentration of the compound to inhibit HIV-1 mutant Y181C replication in HIV-infected MT-4 cells; assay type: functional, cell-based, Homo sapiens
MT4 [6] = experiment: Effective concentration of the compound to inhibit HIV-1 mutant Y188L replication in HIV-infected MT-4 cells; assay type: functional, cell-based, Homo sapiens
MT4 [7] = experiment: Effective concentration of the compound to inhibit HIV-1 mutant K103N+Y181C replication in HIV-infected MT-4 cells; assay type: functional, cell-based, Homo sapiens
MT4 [8] = experiment: Effective concentration of the compound to inhibit HIV-1 mutant L100I+K103N replication in HIV-infected MT-4 cells; assay type: functional, cell-based, Homo sapiens

SMILES	EC50 (MT4 [1]) [nM]	EC50 (MT4 [2]) [nM]	EC50 (MT4 [3]) [nM]	EC50 (MT4 [4]) [nM]	EC50 (MT4 [5]) [nM]	EC50 (MT4 [6]) [nM]	EC50 (MT4 [7]) [nM]	EC50 (MT4 [8]) [nM]
N#Cc1ccc(Nc2nc(Cc3c(Cl)cccc3Cl)ns2)cc1	> 1000							
CC(C)=CCN1Cc2cc(Cl)cc3[nH]c(=S)n(c23)C[C@@H]1C	33							
N#Cc1ccc(NC(=S)NC(=N)Cc2c(Cl)cccc2Cl)cc1		3	590	510	510	320		
Cc1cc(C)c(Oc2ccnc(Nc3ccc(C#N)cc3)n2)c(C)c1		3	3	22	38	55	1100	8200
Cc1cc(C#N)cc(C)c1Nc1ncnc(Nc2ccc(C#N)cc2)n1		1	8	250	50	50		> 10000
N#Cc1ccc(Nc2nc(N)nc(Cc3c(Cl)cccc3Cl)n2)cc1		6	40	400	200	320		
C=CCN1Cc2cccc3[nH]c(=O)n(c23)CC1C (stereo unspecified)	62000							
COc1ccccc1NC(C(N)=O)c1c(Cl)cccc1Cl (stereo unspecified)	610							
NC(=O)C(Nc1ccc(Cl)cc1)c1c(Cl)cccc1Cl (stereo unspecified)	> 50000							
N#Cc1ccc(Nc2cc(Cc3c(Cl)cccc3Cl)nc(N)n2)cc1		10	> 10000	> 10000	> 10000	> 10000		
Cc1cc(C#N)cc(C)c1Oc1nc(Nc2ccc(C#N)cc2)ncc1Br		1	1	7	22	6	25	49
NC(=O)C(NC(=O)c1ccccc1[N+](=O)[O-])c1c(Cl)cccc1Cl (stereo unspecified)	> 50000							
NC(=O)C(Nc1ccccc1[N+](=O)[O-])c1c(Cl)cccc1Cl (stereo unspecified)	100							
Cc1cc(C#N)cc(C)c1Nc1ccnc(Nc2ccc(C#N)cc2)n1		0.4	2	34	7	8	37	1100
Cc1cc(C#N)cc(C)c1Nc1nc(Nc2ccc(C#N)cc2)ncc1Br		0.4	0.4	7	10	3	32	37
NC(=O)C(NC(=O)Nc1ccccc1[N+](=O)[O-])c1c(Cl)cccc1Cl (stereo unspecified)	> 50000							

SMILES	EC50 (MT4 [1]) [nM]	EC50 (MT4 [2]) [nM]	EC50 (MT4 [3]) [nM]	EC50 (MT4 [4]) [nM]	EC50 (MT4 [5]) [nM]	EC50 (MT4 [6]) [nM]	EC50 (MT4 [7]) [nM]	EC50 (MT4 [8]) [nM]
Cc1cc(C)c(Nc2nc(Nc3ccc(C#N)cc3)ncc2Br)c(C)c1		6	7	11	36	27	280	350
Cc1cc(C#N)cc(C)c1Oc1ccnc(Nc2ccc(C#N)cc2)n1		1	3	73	37	19	94	800
NC(=O)C(/N=C(\S)Nc1ccc(Cl)cc1)c1c(Cl)cccc1Cl (stereo unspecified)	160							
NC(=O)C(/N=C(\S)Nc1ccccc1Cl)c1c(Cl)cccc1Cl (stereo unspecified)	> 50000							
NC(=O)C(NCc1ccccc1[N+](=O)[O-])c1c(Cl)cccc1Cl (stereo unspecified)	> 50000							
NC(=O)C(Nc1ccccc1Cl)c1c(Cl)cccc1Cl (stereo unspecified)	400							
Cc1cc(C)c(Oc2ncnc(Nc3ccc(C#N)cc3)n2)c(C)c1		0.6	3	20	20	63	130	2500
N#Cc1ccc(Nc2cc(N)nc(Cc3c(Cl)cccc3Cl)n2)cc1		450	> 10000	> 10000	> 10000	> 10000		
N#Cc1ccc(Nc2nc(N)cc(Cc3c(Cl)cccc3Cl)n2)cc1		1	12	300	180	71		
Cc1cc(C)c(Nc2ccnc(Nc3ccc(C#N)cc3)n2)c(C)c1 [DAPIVIRINE]		1	4	18	8	48	44	> 10000
CC(C)Nc1cccnc1N1CCN(C(=O)c2cc3cc(NS(C)(=O)=O)ccc3[nH]2)CC1 [DELAVIRDINE]		63	2500	2500	2000	1300	> 10000	
O=C1Nc2ccc(Cl)cc2[C@@](C#CC2CC2)(C(F)(F)F)O1 [EFAVIRENZ]		1	40	40	2	160	40	> 10000
Cc1cc(C#N)cc(C)c1Oc1nc(Nc2ccc(C#N)cc2)nc(N)c1Br [ETRAVIRINE]		1	1	3	7	5	4	19
CC(=O)c1ccc(C)cc1NC(C(N)=O)c1c(Cl)cccc1Cl (stereo unspecified) [LOVIRIDE]		13	1300	50	16000	50000		
Cc1ccnc2c1NC(=O)c1cccnc1N2C1CC1 [NEVIRAPINE]		32	6310	320	10000	> 100000	> 10000	
CC(C)=CCN1Cc2c(Cl)ccc3[nH]c(=S)n(c23)C[C@@H]1C [TIVIRAPINE]	4.6							
